Measurements as given in PMC4833812, “Incorporation of tryptophan analogues into the lantibiotic nisin” (Amino Acids, 2016).

Legend:
[1] = Retention time in reverse phase chromatography (HPLC); format: physicochemical; conditions: reverse phase HPLC as described previously (Zhou et al. 2015); used by the paper to reflect changed hydrophobicity/polarity of the variants
Description: To obtain pure peptides for activity tests, the supernatant of 100 ml culture (filtered with 0.2 µm filter, Millipore) was first incubated with 5 ml supernatant of NisP (filtered) at 30 °C for 1 h to cut off the leader part and then purified with cation-ion exchange (HiTrap SP FF, GE healthcare) (van Heel et al. [2013]). The elutions were further loaded on a C18 column (Spherical C18, Sigma- Aldrich). The column was washed and eluted with different concentrations of solution B (solution A, milliQ with 0.1 % TFA; solution B, isopropanol: acetonitrile (2:1) with 0.1 % TFA). The elutions which were active against L. lactis were freeze-dried and further purified with HPLC as described previously (Zhou et al. [2015]). The fractions containing the peaks in the HPLC chromatogram were analysed by activity tests and MALDI-TOF (van Heel et al. [2013]). The peak which was active and contained the pure peptide with right mass was freeze-dried and quantified with HPLC as described previously (Zhou et al. [2015]).
Nisin is a positively charged and hydrophobic molecule. […] This difference was reflected by the elution time of the peptides in cation-ion exchange and reverse phase chromatography (HPLC). The variants with 5HW were eluted about half column volume earlier than other variants during cation-ion exchange (data not shown).

L. lactis MG1363 = experiment: MIC test against indicator strain L. lactis MG1363; format: cell-based, Lactococcus lactis; conditions: for Change of antimicrobial activity, in words: I1 variants compared to I1W, I4 variant compared to nisin
Description: The indicator strain L. lactis MG1363 was first streaked on a GM17 plate and cultured overnight. Before testing the MIC, three to five colonies were picked and cultured with GM17 medium until OD600 reached 0.5. The culture was diluted 500 times with GM17 and mixed with the same volume of peptides dissolved in GM17. The MIC value test was performed according to Wiegand et al. ([2008]).

Micrococcus flavus = conditions: ref Kuipers et al. 1995; Demel et al. 1996; Van Kraaij et al. 1997; Breukink et al. 1998; cited from earlier work
Excerpt: (§1) The first two rings of nisin can bind to lipid II which is essential for cell wall synthesis. The C-terminus of nisin can insert into the membrane enabling pore formation (Breukink and de Kruijff [2006]). Mutagenesis of nisin has been conducted extensively and several residues have been mutated to tryptophan, e.g. I1W, M17W and V32W, which all reduce nisin activity but not dramatically, against Micrococcus flavus by two to three times and against Streptococcus thermophilus by three to eigh ... || The first two rings of nisin can bind to lipid II by forming a pyrophosphate cage (Hsu et al. [2004]).

[2] = system: Streptococcus thermophilus; conditions: ref Kuipers et al. 1995; Demel et al. 1996; Van Kraaij et al. 1997; Breukink et al. 1998; cited from earlier work
Excerpt: as §1

Row | SMILES | Retention time of HPLC [1] [min] | Reduction of antimicrobial activity compared to nisin (L. lactis MG1363; from MIC values) | Reduction of nisin activity against Micrococcus flavus (Micrococcus flavus) | Reduction of nisin activity against Streptococcus thermophilus [2] | Change of antimicrobial activity, in words (L. lactis MG1363; listed as 5FW analogue of I1W) | Change of antimicrobial activity, in words (L. lactis MG1363; listed as 5FW labelled I1W) | Reduction of antimicrobial activity compared to I1W (L. lactis MG1363; from MIC values)
1 | C=C(NC(=O)[C@@H](NC(=O)[C@H](Cc1c[nH]cn1)NC(=O)[C@@H](NC(=O)[C@H](CO)NC(=O)[C@@H]1CS[C@@H](C)[C@H]2NC(=O)[C@H](C)NC(=O)[C@H](NC(=O)[C@H](CCCCN)NC(=O)[C@H](CCSC)NC(=O)[C@H](CC(N)=O)NC(=O)[C@@H]3CS[C@@H](C)[C@@H](NC(=O)[C@H](CCCCN)NC(=O)[C@@H]4CS[C@@H](C)[C@@H](NC(=O)[C@@H]5CSC[C@@H](NC(=O)/C(=C/C)NC(=O)[C@@H](N)[C@@H](C)CC)C(=O)N[C@@H]([C@@H](C)CC)C(=O)NC(=C)C(=O)N[C@@H](CC(C)C)C(=O)N5)C(=O)N5CCC[C@H]5C(=O)NCC(=O)N4)C(=O)NCC(=O)N[C@@H](C)C(=O)N[C@@H](CC(C)C)C(=O)N[C@@H](Cc4c[nH]c5ccc(O)cc45)C(=O)NCC(=O)N3)[C@H](C)SC[C@H](NC2=O)C(=O)N[C@@H](Cc2c[nH]cn2)C(=O)N1)[C@@H](C)CC)C(C)C)C(=O)N[C@@H](CCCCN)C(=O)O [M17-5HW] | 37.2 | 32 times |  |  |  |  | 
2 | C=C(NC(=O)[C@@H](NC(=O)[C@H](Cc1c[nH]cn1)NC(=O)[C@@H](NC(=O)[C@H](CO)NC(=O)[C@@H]1CS[C@@H](C)[C@H]2NC(=O)[C@H](C)NC(=O)[C@H](NC(=O)[C@H](CCCCN)NC(=O)[C@H](CCSC)NC(=O)[C@H](CC(N)=O)NC(=O)[C@@H]3CS[C@@H](C)[C@@H](NC(=O)[C@H](CCCCN)NC(=O)[C@@H]4CS[C@@H](C)[C@@H](NC(=O)[C@@H]5CSC[C@@H](NC(=O)/C(=C/C)NC(=O)[C@@H](N)Cc6c[nH]c7ccccc67)C(=O)N[C@@H]([C@@H](C)CC)C(=O)NC(=C)C(=O)N[C@@H](CC(C)C)C(=O)N5)C(=O)N5CCC[C@H]5C(=O)NCC(=O)N4)C(=O)NCC(=O)N[C@@H](C)C(=O)N[C@@H](CC(C)C)C(=O)N[C@@H](CCSC)C(=O)NCC(=O)N3)[C@H](C)SC[C@H](NC2=O)C(=O)N[C@@H](Cc2c[nH]cn2)C(=O)N1)[C@@H](C)CC)C(C)C)C(=O)N[C@@H](CCCCN)C(=O)O [I1-W] | 38.0 | two | two to three | three to eight |  |  | 
3 | C=C(NC(=O)[C@@H](NC(=O)[C@H](Cc1c[nH]cn1)NC(=O)[C@@H](NC(=O)[C@H](CO)NC(=O)[C@@H]1CS[C@@H](C)[C@H]2NC(=O)[C@H](C)NC(=O)[C@H](NC(=O)[C@H](CCCCN)NC(=O)[C@H](CCSC)NC(=O)[C@H](CC(N)=O)NC(=O)[C@@H]3CS[C@@H](C)[C@@H](NC(=O)[C@H](CCCCN)NC(=O)[C@@H]4CS[C@@H](C)[C@@H](NC(=O)[C@@H]5CSC[C@@H](NC(=O)/C(=C/C)NC(=O)[C@@H](N)Cc6c[nH]c7ccc(F)cc67)C(=O)N[C@@H]([C@@H](C)CC)C(=O)NC(=C)C(=O)N[C@@H](CC(C)C)C(=O)N5)C(=O)N5CCC[C@H]5C(=O)NCC(=O)N4)C(=O)NCC(=O)N[C@@H](C)C(=O)N[C@@H](CC(C)C)C(=O)N[C@@H](CCSC)C(=O)NCC(=O)N3)[C@H](C)SC[C@H](NC2=O)C(=O)N[C@@H](Cc2c[nH]cn2)C(=O)N1)[C@@H](C)CC)C(C)C)C(=O)N[C@@H](CCCCN)C(=O)O [I1-5FW] | 38.9 | two |  |  | did not change the activity | the same activity | 
4 | C=C(NC(=O)[C@@H](NC(=O)[C@H](Cc1c[nH]cn1)NC(=O)[C@@H](NC(=O)[C@H](CO)NC(=O)[C@@H]1CS[C@@H](C)[C@H]2NC(=O)[C@H](C)NC(=O)[C@H](NC(=O)[C@H](CCCCN)NC(=O)[C@H](CCSC)NC(=O)[C@H](CC(N)=O)NC(=O)[C@@H]3CS[C@@H](C)[C@@H](NC(=O)[C@H](CCCCN)NC(=O)[C@@H]4CS[C@@H](C)[C@@H](NC(=O)[C@@H]5CSC[C@@H](NC(=O)/C(=C/C)NC(=O)[C@@H](N)[C@@H](C)CC)C(=O)N[C@@H]([C@@H](C)CC)C(=O)NC(=C)C(=O)N[C@@H](CC(C)C)C(=O)N5)C(=O)N5CCC[C@H]5C(=O)NCC(=O)N4)C(=O)NCC(=O)N[C@@H](C)C(=O)N[C@@H](CC(C)C)C(=O)N[C@@H](Cc4c[nH]c5ccccc45)C(=O)NCC(=O)N3)[C@H](C)SC[C@H](NC2=O)C(=O)N[C@@H](Cc2c[nH]cn2)C(=O)N1)[C@@H](C)CC)C(C)C)C(=O)N[C@@H](CCCCN)C(=O)O [M17-W] | 38.5 | 32 times | two to three | three to eight |  |  | 
5 | C=C(NC(=O)[C@@H](NC(=O)[C@H](Cc1c[nH]cn1)NC(=O)[C@@H](NC(=O)[C@H](CO)NC(=O)[C@@H]1CS[C@@H](C)[C@H]2NC(=O)[C@H](C)NC(=O)[C@H](NC(=O)[C@H](CCCCN)NC(=O)[C@H](CCSC)NC(=O)[C@H](CC(N)=O)NC(=O)[C@@H]3CS[C@@H](C)[C@@H](NC(=O)[C@H](CCCCN)NC(=O)[C@@H]4CS[C@@H](C)[C@@H](NC(=O)[C@@H]5CSC[C@@H](NC(=O)/C(=C/C)NC(=O)[C@@H](N)Cc6c[nH]c7ccc(O)cc67)C(=O)N[C@@H]([C@@H](C)CC)C(=O)NC(=C)C(=O)N[C@@H](CC(C)C)C(=O)N5)C(=O)N5CCC[C@H]5C(=O)NCC(=O)N4)C(=O)NCC(=O)N[C@@H](C)C(=O)N[C@@H](CC(C)C)C(=O)N[C@@H](CCSC)C(=O)NCC(=O)N3)[C@H](C)SC[C@H](NC2=O)C(=O)N[C@@H](Cc2c[nH]cn2)C(=O)N1)[C@@H](C)CC)C(C)C)C(=O)N[C@@H](CCCCN)C(=O)O [I1-5HW] | 35.0 | four |  |  |  |  | two
